Measurements as given in ChEMBL document CHEMBL4425085, “Challenges and Perspectives on the Development of Small-Molecule EGFR Inhibitors against T790M-Mediated Resistance in Non-Small-Cell Lung Cancer” (J Med Chem, 2016).

Key:
[1] = system: NCI-H1975; assay: Antiproliferative activity against gefitinib resistant human NCI-H1975 cells expressing EGFR L858R/T790M double mutant after 72 hrs by MTS assay; assay type: functional, cell-based; conditions: NCI-H1975, 72 h
[2] = system: BaF3; assay: Antiproliferative activity against gefitinib resistant mouse BA/F3 cells expressing EGFR L858R/T790M double mutant after 72 hrs by MTS assay; assay type: functional, cell-based; conditions: BaF3, 72 h
[3] = system: BaF3; assay: Antiproliferative activity against gefitinib sensitive mouse BA/F3 cells expressing EGFR exon 19 del E746_A750 activating mutant after 72 hrs by MTS assay; assay type: functional, cell-based; conditions: BaF3, 72 h
[4] = system: BaF3; assay: Antiproliferative activity against mouse BA/F3 cells expressing wild type EGFR after 72 hrs by MTS assay; assay type: cell-based; conditions: BaF3, 72 h
[5] = system: BaF3; assay: Selectivity ratio of IC50 for gefitinib sensitive mouse BA/F3 cells expressing wild type EGFR to IC50 for gefitinib resistant mouse BA/F3 cells expressing EGFR L858R/T790M double mutant
[6] = system: BaF3; assay: Potency index, ratio of gefitinib IC50 to compound IC50 for gefitinib resistant mouse BA/F3 cells expressing EGFR L858R/T790M double mutant; assay type: functional
[7] = system: NCI-H1975; assay: Potency index, ratio of gefitinib IC50 to compound IC50 for gefitinib resistant human NCI-H1975 cells expressing EGFR L858R/T790M double mutant; assay type: functional
[8] = biological target: Epidermal growth factor receptor (Homo sapiens, UniProt P00533); assay: Binding affinity to wild type partial length human EGFR expressed in bacterial system by KINOMEscan assay
Sequence of Epidermal growth factor receptor (Homo sapiens, UniProt P00533) (P00533 whole entry): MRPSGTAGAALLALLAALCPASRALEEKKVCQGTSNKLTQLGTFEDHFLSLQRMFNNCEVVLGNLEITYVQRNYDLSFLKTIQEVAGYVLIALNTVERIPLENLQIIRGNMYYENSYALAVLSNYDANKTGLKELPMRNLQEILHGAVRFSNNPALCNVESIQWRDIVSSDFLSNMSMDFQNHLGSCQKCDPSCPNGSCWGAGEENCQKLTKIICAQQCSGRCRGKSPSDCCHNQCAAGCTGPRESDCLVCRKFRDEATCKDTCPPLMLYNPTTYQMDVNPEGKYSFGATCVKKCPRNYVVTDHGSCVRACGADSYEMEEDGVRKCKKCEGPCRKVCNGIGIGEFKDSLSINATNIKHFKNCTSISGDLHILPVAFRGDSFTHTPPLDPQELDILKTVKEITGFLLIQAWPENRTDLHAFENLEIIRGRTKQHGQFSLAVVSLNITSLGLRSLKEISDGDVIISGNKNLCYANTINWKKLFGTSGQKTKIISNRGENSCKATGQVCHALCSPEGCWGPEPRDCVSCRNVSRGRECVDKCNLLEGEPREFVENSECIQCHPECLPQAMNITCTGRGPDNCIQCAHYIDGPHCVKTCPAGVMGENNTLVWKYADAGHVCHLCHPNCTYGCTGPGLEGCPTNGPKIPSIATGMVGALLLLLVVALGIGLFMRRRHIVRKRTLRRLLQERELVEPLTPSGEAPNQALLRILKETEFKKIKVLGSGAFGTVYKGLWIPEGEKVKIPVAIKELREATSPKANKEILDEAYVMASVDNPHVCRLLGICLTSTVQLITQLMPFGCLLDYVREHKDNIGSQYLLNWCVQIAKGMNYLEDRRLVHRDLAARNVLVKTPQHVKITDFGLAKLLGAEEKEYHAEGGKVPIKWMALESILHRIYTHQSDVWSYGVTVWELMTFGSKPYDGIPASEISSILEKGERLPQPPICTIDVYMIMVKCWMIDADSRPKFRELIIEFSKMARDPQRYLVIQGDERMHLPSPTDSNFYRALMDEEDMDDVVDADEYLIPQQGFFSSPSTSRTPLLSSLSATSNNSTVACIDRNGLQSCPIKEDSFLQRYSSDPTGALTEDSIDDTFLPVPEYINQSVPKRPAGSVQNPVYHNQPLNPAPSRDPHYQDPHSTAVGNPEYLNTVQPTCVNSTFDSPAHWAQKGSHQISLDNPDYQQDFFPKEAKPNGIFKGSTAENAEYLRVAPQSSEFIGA

[9] = biological target: Epidermal growth factor receptor (Homo sapiens, UniProt P00533, L858R/T790M); assay: Binding affinity to partial length human EGFR L858R/T790M double mutant expressed in mammalian system by KINOMEscan assay
Sequence of Epidermal growth factor receptor (Homo sapiens, UniProt P00533, L858R/T790M) (P00533 25-1210 T790M/L858R limits assumed): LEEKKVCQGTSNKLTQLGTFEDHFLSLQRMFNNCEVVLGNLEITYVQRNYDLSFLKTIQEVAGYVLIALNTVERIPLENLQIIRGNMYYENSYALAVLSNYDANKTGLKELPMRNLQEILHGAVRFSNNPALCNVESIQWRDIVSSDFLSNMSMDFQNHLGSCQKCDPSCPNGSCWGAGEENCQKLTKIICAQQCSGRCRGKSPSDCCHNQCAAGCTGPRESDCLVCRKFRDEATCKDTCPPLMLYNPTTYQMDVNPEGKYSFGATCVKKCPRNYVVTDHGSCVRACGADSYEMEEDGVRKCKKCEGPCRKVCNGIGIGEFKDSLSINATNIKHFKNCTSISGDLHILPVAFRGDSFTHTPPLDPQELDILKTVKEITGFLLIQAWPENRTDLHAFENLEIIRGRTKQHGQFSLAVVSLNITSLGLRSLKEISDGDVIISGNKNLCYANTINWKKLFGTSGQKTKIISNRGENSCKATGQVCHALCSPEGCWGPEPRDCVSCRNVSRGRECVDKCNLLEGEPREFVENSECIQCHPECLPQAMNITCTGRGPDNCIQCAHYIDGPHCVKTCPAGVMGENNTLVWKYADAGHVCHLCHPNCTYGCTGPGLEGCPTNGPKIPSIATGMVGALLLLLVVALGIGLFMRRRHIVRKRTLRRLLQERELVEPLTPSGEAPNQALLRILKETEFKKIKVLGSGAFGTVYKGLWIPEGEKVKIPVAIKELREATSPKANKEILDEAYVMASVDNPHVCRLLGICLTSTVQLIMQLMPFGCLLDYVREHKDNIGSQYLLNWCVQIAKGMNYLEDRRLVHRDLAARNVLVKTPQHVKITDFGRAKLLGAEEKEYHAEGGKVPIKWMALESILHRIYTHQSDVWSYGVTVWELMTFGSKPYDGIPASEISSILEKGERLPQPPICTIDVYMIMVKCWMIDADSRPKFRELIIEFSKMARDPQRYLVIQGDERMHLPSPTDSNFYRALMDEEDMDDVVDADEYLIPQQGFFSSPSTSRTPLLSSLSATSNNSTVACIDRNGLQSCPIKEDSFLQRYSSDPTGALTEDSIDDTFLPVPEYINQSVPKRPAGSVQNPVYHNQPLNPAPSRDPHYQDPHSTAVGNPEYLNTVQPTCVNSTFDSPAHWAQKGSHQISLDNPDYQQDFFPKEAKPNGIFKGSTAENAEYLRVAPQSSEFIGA

[10] = organism: Homo sapiens; assay: Selectivity ratio of Kd for wild type partial length human EGFR to Kd for partial length human EGFR L858R/T790M double mutant
[11] = system: A-431; assay: Antiproliferative activity against human A431 cells expressing wild type EGFR by MTS assay; assay type: cell-based
[12] = system: NCI-H1975; assay: Antiproliferative activity against human NCI-H1975 cells expressing EGFR L858R/T790M double mutant by MTS assay; assay type: functional, cell-based
[13] = Selectivity ratio of IC50 for human A431 cells expressing wild type EGFR to IC50 for human NCI-H1975 cells expressing EGFR L858R/T790M double mutant
[14] = system: PC-9; assay: Antiproliferative activity against gefitinib resistant human PC9 cells expressing EGFR del E746_A750/T790M mutant after 72 hrs by MTS assay; assay type: functional, cell-based; conditions: PC-9, 72 h
[15] = system: NCI-H1975; assay: Antiproliferative activity against human NCI-H1975 cells expressing EGFR L858R/T790M double mutant assessed as decrease in cell viability after 48 hrs by WST assay; assay type: functional, cell-based; conditions: NCI-H1975, 48 h

| Compound | IC50 [1] [nM] | IC50 [2] [nM] | IC50 [3] [nM] | IC50 [4] [nM] | Ratio IC50 [5] | Ratio IC50 [6] | Ratio IC50 [7] | Kd [8] [nM] | Kd [9] [nM] | Selectivity ratio [10] | IC50 [11] [nM] | IC50 [12] [nM] | Ratio IC50 [13] | IC50 [14] [nM] | IC50 [15] [nM] |
| --- | --- | --- | --- | --- | --- | --- | --- | --- | --- | --- | --- | --- | --- | --- | --- |
| C=CC(=O)Nc1cccc(Sc2nc(Nc3ccc(N4CCN(C)CC4)cc3)ncc2Cl)c1 | 9 | 9 | 2 | 32 | 4 | 30 - 100 | 30 - 100 | – | – | – | – | – | – | – | – |
| C=CC(=O)Nc1cccc(-n2c3nc(Nc4ccc(N5CCN(C)CC5)cc4OC)ncc3c(=O)n3ccnc23)c1 | – | – | – | – | – | – | – | 140 | 1.8 | 78 | 2980 | 143 | 21 | – | – |
| C=CC(=O)Nc1cccc(-n2c3nc(Nc4ccc(N5CCN(NC)CC5)cc4OC)ncc3c(=O)n3ccnc23)c1 | – | – | – | – | – | – | – | 310 | 2.6 | 119 | 14500 | 86 | 169 | – | – |
| C=CC(=O)Nc1cccc(Oc2nc(Nc3ccc(N4CCN(C)CC4)cc3OC)ncc2Cl)c1 | 47 | 8 | 3 | 113 | – | – | – | – | – | – | 1040 | 55 | – | 14 | – |
| C=CC(=O)Nc1cccc(Oc2nc(Nc3ccc(N4CCN(C)CC4)cc3)ncc2Cl)c1 | 29 | 5 | 2 | 24 | 5 | 30 - 100 | 30 - 100 | – | – | – | – | – | – | – | – |
| C=CC(=O)Nc1cccc(-n2c3nc(Nc4ccc(N5CCOCC5)cc4OC)ncc3c(=O)n3ccnc23)c1 | – | – | – | – | – | – | – | 950 | 6.1 | 156 | > 30000 | 476 | 63 | – | – |
| CN(C)C/C=C/C(=O)Nc1cc2c(Nc3ccc(F)c(Cl)c3)ncnc2cc1O[C@H]1CCOC1 [AFATINIB] | – | – | – | – | – | – | – | – | – | – | – | – | – | – | 900 |
| C=CC(=O)Nc1cccc(-n2c3nc(Nc4ccc(N5CCN(C)CC5)cc4OCC)ncc3c(=O)n3ccnc23)c1 | – | – | – | – | – | – | – | 420 | 3.1 | 136 | 5250 | 396 | 13 | – | – |
| C=CC(=O)Nc1cccc(N2C3=NCCCCN3C(=O)c3cnc(Nc4ccc(N5CCN(C)CC5)cc4OC)nc32)c1 | – | – | – | – | – | – | – | 17 | 0.88 | 20 | 1540 | 648 | 3 | – | – |
| C=CC(=O)Nc1cccc(-n2c3nc(Nc4ccc(N5CCN(C)CC5)cc4OC)ncc3c(=O)n3c4ccccc4nc23)c1 | – | – | – | – | – | – | – | 110 | 1.1 | 100 | 3570 | 307 | 12 | – | – |
